The text below walks through data of patent publication US10131658B2, “Anti-alphavbeta1 integrin compounds and methods” (The Regents of the University of California, priority 2013, dated 2018).

The subject of one assay is αvβ1 integrin. Kind of assay: Cell Adhesion Assay (integrin-specific adhesion, CHO cells transfected with human αv adhering to fibronectin). It counts as cell-based. Particulars: for IC50: Cell Adhesion Assay. As for the experimental part:
The effects of c8 and c16 on cell adhesion mediated by α5β1, α8β1, αvβ1, αvβ3, αvβ5, αvβ6, and αvβ8 were measured using pairs of cell lines and ligands selected to isolate the effect of each individual integrin. For α5β1 we utilized the colon carcinoma cell line, SW480, plated on 0.3 μg/ml fibronectin, for α8β1, we utilized SW480 cells transfected with human α8 adhering to 1 μg/ml recombinant TGFβ1 LAP [5], for αvβ1 we used Chinese Hamster Ovary Cells (CHO cells) transfected with human αv adhering to 0.3 μg/ml fibronectin [6], for αvβ3 we used SW480 cells transfected with human β3, for αvβ5 we used wild type SW480 cells adhering to 0.1 μg/ml vitronectin. […] Cells were allowed to attach for 30-60 min at 37° C. After incubation, non-adherent cells were removed by discarding the media and spinning the plate top-side down at 500 rpm for 5 minutes. Cells were then fixed and stained with 40 ul of 0.5% Crystal violet, 1% Formaldehyde, 20% Methanol for 30 minutes and lysed with 2% Trition-X. Absorbance was measured at 595 nm in a Microplate reader. For all assays, concentration-response curves were constructed by non-linear regression analysis and IC50 values were calculated using GraphPad Prism software.
αvβ1 integrin inhibition is effective in cell adhesion assay/mouse liver fibrosis model: Inhibitors were tested in cell adhesion assay to test their potency/selectivity. A panel of cell lines and integrin ligands were developed to allow rapid examination of potency and specificity of inhibitors against all 8 integrins that recognize RGD sequences in ligands. A subset of these was used to generate the very encouraging data about 8 shown above. These cell lines were used to calculate IC50 concentrations for each inhibitor synthesized to rapidly generate structure activity information to drive subsequent modification and synthesis. Inhibitors were evaluated for showing better potency/selectivity in CCl4-induced liver fibrosis. A general inhibitor of αv integrins can reverse fibrosis in this model when administered as a continuous subcutaneous infusion (from Alzet pumps) beginning 3 weeks after CCl4 initiation. However, global inhibition of all αv integrins is likely to cause unacceptable side effects. […] As above, pumps will be inserted after 3 weeks of CCl4 treatment. Once we find small molecules that are effective, each will be further tested in the UUO model of renal fibrosis and the bleomycin model of pulmonary fibrosis. Again we will examine therapeutic rather than prophylactic efficacy by beginning treatment in each model after the onset of fibrosis.

Assay [1] deals with TGFβ activation by cells expressing αvβ1. Nature of the assay: TGFβ activation assay (co-culture with PAI1-luciferase TGFβ reporter cells). It counts as cell-based. As for the experimental part:
Test cells were plated at 50K cells/well in 96-well plates together with mink lung epithelial cells expressing firefly luciferase downstream of the TGFβ sensitive portion of the plasminogen activator inhibitor 1 promoter (15K cells/well). Cells were co-cultured for 16 hours and TGFβ activity was calculated by measurement of luminescencein the presence and absence of TGFβ-blocking antibody, 1D11.

Structures are written as SMILES. Where only a bound is given, the exact number is not on record here.

One may read the IC50 as the point on the concentration scale where inhibition reaches its midpoint. Higher therefore signals a need for much substance. As for `NCCCCCC(=O)Nc1ccc(C[C@H](NC(=O)[C@@H]2CCCN2S(=O)(=O)c2ccccc2)C(=O)O)cc1` [Compound 9, (S)-3-(4-(6-aminohexanamido)phenyl)-2-((S)-1-(phenylsulfonyl)pyrrolidine-2-carboxamido)propanoic acid], in the assay on αvβ1 integrin, the 50% inhibitory concentration (IC50) was 1000 to 10000 nM. `N=C(N)NC(=O)CCC(=O)Nc1ccc(C[C@H](NC(=O)[C@@H]2CCCN2S(=O)(=O)c2ccccc2)C(=O)O)cc1` [Compound 93]: the IC50 in the assay on αvβ1 integrin lay within 10 to 1000 nM. Consider `O=C(CCCNC1=NCCN1)Nc1ccc(C[C@H](NC(=O)[C@@H]2CCCN2S(=O)(=O)c2ccccc2)C(=O)O)cc1` [Compound 87, (S)-3-(4-(4-((4,5-dihydro-1H-imidazol-2-yl)amino)butanamido)phenyl)-2-((S)-1-(phenylsulfonyl)pyrrolidine-2-carboxamido)propanoic acid], for which the IC50 in the assay on αvβ1 integrin was below 10 nM. With `NCCCC(=O)Nc1ccc(C[C@H](NC(=O)[C@@H]2CCCN2S(=O)(=O)c2ccccc2)C(=O)O)cc1` [Compound 6, (S)-3-(4-(4-aminobutanamido)phenyl)-2-((S)-1-(phenylsulfonyl)pyrrolidine-2-carboxamido)propanoic acid], the half-inhibitory concentration (IC50) with αvβ1 integrin is below 10 nM.

As to `NCCC(=O)Nc1ccc(C[C@H](NC(=O)[C@@H]2CCCN2S(=O)(=O)c2ccccc2)C(=O)O)cc1` [Compound 2, (S)-3-(4-(3-aminopropanamido)phenyl)-2-((S)-1-(phenylsulfonyl)pyrrolidine-2-carboxamido)propanoic acid], in the assay on αvβ1 integrin, the 50% inhibitory concentration (IC50) fell in the range of 10 to 1000 nM. Take `O=C(CCCc1ccc2c(n1)NCCC2)Nc1ccc(C[C@H](NC(=O)[C@@H]2CCCN2S(=O)(=O)c2ccccc2)C(=O)O)cc1` [Compound 63]: the 50% inhibitory concentration (IC50) with αvβ1 integrin lay in the range of 10 to 1000 nM. In the assay on αvβ1 integrin, `N=C(N)NCCCCC(=O)Nc1ccc(C[C@H](NC(=O)[C@@H]2CCCN2S(=O)(=O)c2ccccc2)C(=O)O)cc1` [Compound 8, (S)-3-(4-(5-guanidinopentanamido)phenyl)-2-((S)-1-(phenylsulfonyl)pyrrolidine-2-carboxamido)propanoic acid] yielded an IC50 below 10 nM. Also, in the assay on αvβ1 integrin (preliminary studies, highly selective manner), the “concentration that inhibits cell adhesion by αvβ1 integrin” value is given as below 100 pM. The “TGFβ activation by cultured liver myofibroblasts” value in assay [1] is on record as “inhibits TGFβ activation”. The molecule `N=C(N)NCCOCC(=O)Nc1ccc(C[C@H](NC(=O)[C@@H]2CCCN2S(=O)(=O)c2ccccc2)C(=O)O)cc1` [Compound 204, (S)-3-(4-(2-(2-guanidinoethoxy)acetamido)phenyl)-2-((S)-1-(phenylsulfonyl)pyrrolidine-2-carboxamido)propanoic acid] returned an IC50 in the assay on αvβ1 integrin of 10 to 1000 nM.

Molecule `Cc1cccc(NCCCC(=O)Nc2ccc(C[C@H](NC(=O)[C@@H]3CCCN3S(=O)(=O)c3ccccc3)C(=O)O)cc2)n1` [Compound 207, (S)-3-(4-(4-((6-methylpyridin-2-yl)amino)butanamido)phenyl)-2-((S)-1-(phenylsulfonyl)pyrrolidine-2-carboxamido)propanoic acid] had a half-inhibitory concentration (IC50) in the assay with αvβ1 integrin of 10 to 1000 nM. The molecule `NCCCCC(=O)Nc1ccc(C[C@H](NC(=O)[C@@H]2CCCN2S(=O)(=O)c2ccccc2)C(=O)O)cc1` [Compound 7, (S)-3-(4-(5-aminopentanamido)phenyl)-2-((S)-1-(phenylsulfonyl)pyrrolidine-2-carboxamido)propanoic acid] yielded a half-inhibitory concentration (IC50) in the assay on αvβ1 integrin of 1000 to 10000 nM. Still for that read-out and setting: the figure for `N=C(N)Nc1cccc(C(=O)Nc2ccc(C[C@H](NC(=O)[C@@H]3CCCN3S(=O)(=O)c3ccccc3)C(=O)O)cc2)c1` [Compound 201, (S)-3-(4-(3-guanidinobenzamido)phenyl)-2-((S)-1-(phenylsulfonyl)pyrrolidine-2-carboxamido)propanoic acid] is below 10 nM; for `N=C(N)NCCCC(=O)Nc1ccc(C[C@H](NC(=O)[C@@H]2CCCCN2S(=O)(=O)c2ccccc2)C(=O)O)cc1` [Compound 212] it is 10 to 1000 nM. Still for that read-out and setting: the value for `CN(C)c1cccc2c(S(=O)(=O)N3CCCC3C(=O)N[C@@H](Cc3ccc(NC(=O)CCCCNC(=N)N)cc3)C(=O)O)cccc12` (stereo partly drawn) [Compound 215] was below 10 nM.

As to `N=C(N)NCC(=O)Nc1ccc(C[C@H](NC(=O)[C@@H]2CCCN2S(=O)(=O)c2ccccc2)C(=O)O)cc1` [Compound 4, (S)-3-(4-(2-guanidinoacetamido)phenyl)-2-((S)-1-(phenylsulfonyl)pyrrolidine-2-carboxamido)propanoic acid], the IC50 in the assay on αvβ1 integrin lay in the range of 10 to 1000 nM. As for `N=C(N)NCCC(=O)Nc1ccc(C[C@H](NC(=O)[C@@H]2CCCN2S(=O)(=O)c2ccccc2)C(=O)O)cc1` [Compound 5, (S)-3-(4-(3-guanidinopropanamido)phenyl)-2-((S)-1-(phenylsulfonyl)pyrrolidine-2-carboxamido)propanoic acid], the half-maximal inhibitory concentration (IC50) with αvβ1 integrin was below 10 nM. Still for that read-out and setting: the figure for `O=C(CCCNc1ccccn1)Nc1ccc(C[C@H](NC(=O)[C@@H]2CCCCN2S(=O)(=O)c2ccccc2)C(=O)O)cc1` [Compound 213] is below 10 nM; for `NCC(=O)Nc1ccc(C[C@H](NC(=O)[C@@H]2CCCN2S(=O)(=O)c2ccccc2)C(=O)O)cc1` [Compound 1, (S)-3-(4-(2-aminoacetamido)phenyl)-2-((S)-1-(phenylsulfonyl)pyrrolidine-2-carboxamido)propanoic acid] it is 1000 to 10000 nM; for `O=C(CCCCNC1=NCCN1)Nc1ccc(C[C@H](NC(=O)[C@@H]2CCCN2S(=O)(=O)c2ccccc2)C(=O)O)cc1` [Compound 11, (S)-3-(4-(5-((4,5-dihydro-1H-imidazol-2-yl)amino)pentanamido)phenyl)-2-((S)-1-(phenylsulfonyl)pyrrolidine-2-carboxamido)propanoic acid] it is 10 to 1000 nM.

In the case of `Cc1cc(C)cc(S(=O)(=O)N2CCC[C@H]2C(=O)N[C@@H](Cc2ccc(NC(=O)CCCNC(=N)N)cc2)C(=O)O)c1` [Compound 214], in the assay on αvβ1 integrin, the half-maximal inhibitory concentration (IC50) was in the range of 10 to 1000 nM. Turning to `CNCCCCCC(=O)N[C@H](CCCNC(=N)N)C(=O)Nc1ccc(C[C@H](NC(=O)[C@@H]2CCCN2S(=O)(=O)c2ccccc2)C(=O)O)cc1` (stereo in doubt) [Compound 199], the IC50 in the assay on αvβ1 integrin was below 10 nM. The same measure, in the same setting: the value for `N=C(N)Nc1cccc(CC(=O)Nc2ccc(C[C@H](NC(=O)[C@@H]3CCCN3S(=O)(=O)c3ccccc3)C(=O)O)cc2)c1` [Compound 205, (S)-3-(4-(2-(3-guanidinophenyl)acetamido)phenyl)-2-((S)-1-(phenylsulfonyl)pyrrolidine-2-carboxamido)propanoic acid] was 10 to 1000 nM. Still for that read-out and setting: the figure for `Cc1ccc(NCCCC(=O)Nc2ccc(C[C@H](NC(=O)[C@@H]3CCCN3S(=O)(=O)c3ccccc3)C(=O)O)cc2)nc1` [Compound 206, (S)-3-(4-(4-((5-methylpyridin-2-yl)amino)butanamido)phenyl)-2-((S)-1-(phenylsulfonyl)pyrrolidine-2-carboxamido)propanoic acid] is 10 to 1000 nM; for `Cc1cnc(NCCCC(=O)Nc2ccc(C[C@H](NC(=O)[C@@H]3CCCN3S(=O)(=O)c3ccccc3)C(=O)O)cc2)c(C)c1` [Compound 210, (S)-3-(4-(4-((3,5-dimethylpyridin-2-yl)amino)butanamido)phenyl)-2-((S)-1-(phenylsulfonyl)pyrrolidine-2-carboxamido)propanoic acid] it is 10 to 1000 nM. Regarding `N=C(N)Nc1ccc(C(=O)Nc2ccc(C[C@H](NC(=O)[C@@H]3CCCN3S(=O)(=O)c3ccccc3)C(=O)O)cc2)cc1` [Compound 200, (S)-3-(4-(4-guanidinobenzamido)phenyl)-2-((S)-1-(phenylsulfonyl)pyrrolidine-2-carboxamido)propanoic acid], in the assay on αvβ1 integrin, the IC50 is 10 to 1000 nM.

Molecule `N=C(N)NCCCCCC(=O)Nc1ccc(C[C@H](NC(=O)[C@@H]2CCCN2S(=O)(=O)c2ccccc2)C(=O)O)cc1` [Compound 10, (S)-3-(4-(6-guanidinohexanamido)phenyl)-2-((S)-1-(phenylsulfonyl)pyrrolidine-2-carboxamido)propanoic acid] displayed an IC50 in the assay with αvβ1 integrin of 10 to 1000 nM. The same measure, in the same setting: the value for `O=C(CCCCNC1=NCCCN1)Nc1ccc(C[C@H](NC(=O)[C@@H]2CCCN2S(=O)(=O)c2ccccc2)C(=O)O)cc1` [Compound 60] was 10 to 1000 nM; that for `CNCCCCCC(=O)N[C@H](CCCNC(=N)N)C(=O)Nc1ccc(C[C@H](NC(=O)C2CCCN2S(=O)(=O)c2ccccc2)C(=O)O)cc1` (stereo partly drawn) [Compound 198] was 10 to 1000 nM.

In turn, `NCCCC(=O)Nc1ccc(C[C@H](NC(=O)[C@@H]2CCCN2S(=O)(=O)c2ccccc2)C(=O)O)cc1` [Compound 3, (S)-3-(4-(4-aminobutanamido)phenyl)-2-((S)-1-(phenylsulfonyl)pyrrolidine-2-carboxamido)propanoic acid] returned an IC50 with αvβ1 integrin of 10 to 1000 nM.
